Data published in PMC9431551, “Isolation of the Thermostable β-Glucosidase-Secreting Strain Bacillus altitudinis JYY-02 and Its Application in the Production of Gardenia Blue” (Microbiology Spectrum, 2022).

Test system: T1, recombinant β-glucosidase of B. altitudinis JYY-02 (bgl)
T1 construct: full-length ORF 1,467 bp, 488 residues, N-terminus MTTIKG from forward primer; E. coli BL21(DE3); 54 kDa
Assay: p-nitrophenol release at […] nm, Lineweaver-Burk plot
Type: biochemical, Bacillus altitudinis
Details: citrate-disodium hydrogen phosphate buffer 0.2 M, pH 5.6, 55°C (standard assay); abstract prints 0.331 mM

Km: 332 µM
SMILES: O=[N+]([O-])c1ccc(O[C@@H]2O[C@H](CO)[C@@H](O)[C@H](O)[C@H]2O)cc1 [p-nitrophenyl-β-D-glucopyranoside]
